{
  "source": "patent US12083096B2",
  "about": "“Composition containing artesunate” (priority 2016, dated 2024)",
  "key": {"[1]": {"conditions": "in vivo; cited from earlier work"}, "[2]": {"conditions": "cited from earlier work"}, "[3]": {"conditions": "cited from earlier work", "remark": "listed apart in the source"}, "[4]": {"assay": "time to dissolve artesunate powder in aqueous base solution to a clear solution", "type": "physicochemical", "conditions": "10 mg of artesunate with 5% sodium bicarbonate solution", "description": "The formulation was prepared prior to use by: providing artesunate; providing a solution comprising an organic base; and adding the solution to artesunate to provide the formulation. For example, the injectable formulation of the present disclosure was prepared by mixing artesunate with an aqueous solution containing a base described herein. Without wishing to be bound by theory, artesunate becomes negatively charged and dissolved. The formulation is freshly prepared immediately before use to minimize instability. In some embodiments, the injectable formulation is prepared by adding a solution of the disclosed bases to artesunate powder. The solution is about 5% glucose, normal saline, or about 5% glucose saline solution. Then the mixture is mixed gently to provide a clear injectable solution.\nThe formulation of the present disclosure is very convenient to prepare."}},
  "data": [
    {"molecule": "C[C@H]1[C@H](OC(=O)CCC(=O)O)O[C@@H]2O[C@@]3(C)CC[C@H]4[C@H](C)CC[C@@H]1[C@@]24OO3", "note": "[artesunate]", "values": [
      {"measurement": "plasma half-life", "setting": "[1]", "result": "about 20 minutes"},
      {"measurement": "stability under basic and acidic conditions", "setting": "[2]", "result": "unstable"},
      {"measurement": "solubility in organic solvents", "setting": "[3]; organic solvents, such as acetone and methanol", "result": "soluble"},
      {"measurement": "solubility in water", "setting": "[3]; water", "result": "slightly soluble"},
      {"measurement": "time needed to dissolve", "setting": "[4]", "result": "five to seven"}
    ]}
  ]
}
